Among the test systems are DMS 114 small cell lung; P388 leukemia; M19-MEL melanoma; DMS 273 small cell lung; HOP-18 NSCLC; P388/ADR leukemia; SN12K1 renal; LXFL 529 NSCLC.
What all share (experiment): NCI tumour cell line growth inhibition, 48 h

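Step 1: Grow cells in 96-well plates. Step 2: Expose to compound for 48 hours at 5 concentrations. Step 3: Interpolate endpoints linearly; if unreached, use highest concentration. The concentration for full growth arrest is given as TGI.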

In the case of `O=NN1C(c2ccccc2)C2CCCC(C2=O)C1c1ccccc1` (stereo not given), the TGI is more than 93.8 µM with DMS 114 small cell lung; more than 64.1 µM in the experiment with P388 leukemia; 37.1 µM in the experiment on M19-MEL melanoma; 55.2 µM with DMS 273 small cell lung; more than 25.2 µM in the experiment on HOP-18 NSCLC; 45.9 µM in the experiment with P388/ADR leukemia. Moreover, the TGI with SN12K1 renal is more than 71.3 µM.

For the compound `COc1ccc(NC(=S)NNC(=O)c2nsc3ccccc23)cc1`, the TGI is more than 100 µM with LXFL 529 NSCLC, more than 100 µM in the experiment on DMS 114 small cell lung, more than 100 µM in the experiment on M19-MEL melanoma and 81.5 µM in the experiment on DMS 273 small cell lung.

Consider `c1ccc2c(c1)OCCc1cn[nH]c1-2`, for which the TGI in the experiment on DMS 114 small cell lung, in the experiment with P388 leukemia, with DMS 273 small cell lung, with HOP-18 NSCLC, in the experiment on P388/ADR leukemia and in the experiment on SN12K1 renal was more than 100 µM in each case.

As to `NC1C=NNC1=O` (stereo not given), the TGI with LXFL 529 NSCLC, in the experiment on DMS 114 small cell lung and in the experiment on DMS 273 small cell lung was more than 100 µM throughout.
